The values that follow are results of earlier work, collected in article PMC11949389 (Polish Journal of Microbiology, 2025).

≈ marks a conversion by molar mass, not a printed value. Where two headings read alike, the source gives them in different places.

For data set [1], the system named is Candida tropicalis. The settings on record: Candida tropicalis; ref Iraji et al. 2020; Stringaro et al. 2022.
Data set [2] deals with Candida dubliniensis. The settings on record: ref Iraji et al. 2020.
Data set [3] deals with Candida krusei. The settings on record: Candida krusei; ref Sharifzadeh et al. 2019; Iraji et al. 2020; Biernasiuk et al. 2022; Stringaro et al. 2022.
The test system of data set [4] is Candida glabrata. The settings on record: Candida glabrata; ref Sharifzadeh et al. 2019; Iraji et al. 2020; Biernasiuk et al. 2022; Stringaro et al. 2022.
Data set [5] has as its system Candida albicans. The settings on record: Candida albicans; ref Sharifzadeh et al. 2019; Iraji et al. 2020; Shaban et al. 2020; Stringaro et al. 2022; Biernasiuk et al. 2022.
The test system of data set [6] is Candida parapsilosis. The settings on record: ref Iraji et al. 2020, Biernasiuk et al. 2022.
Data set [7] has as its system Mupirocin-resistant Staphylococcus aureus. The settings on record: ref Kwiatkowski et al. 2019.
In data set [8] the test system is Mupirocin-susceptible Staphylococcus aureus. The settings on record: ref Kwiatkowski et al. 2019.
Data set [9] relates to Acinetobacter baumannii. The settings on record: ref Sayout et al. 2020.
The test system of data set [10] is Escherichia coli. The settings on record: Escherichia coli; ref Owen et al. 2019; Sayout et al. 2020; Noumi et al. 2023.
For data set [11], the system named is Klebsiella pneumoniae. The settings on record: ref Sayout et al. 2020, de Souza et al. 2021, Kwiatkowski et al. 2022.
Data set [12] relates to Enterobacter aerogenes. The settings on record: ref Sayout et al. 2020.
In data set [13] the test system is Pseudomonas aeruginosa. The settings on record: Pseudomonas aeruginosa; ref Owen et al. 2019; Sim et al. 2019; Noumi et al. 2023.
Data set [14] has as its system Klebsiella oxytoca. The settings on record: ref Sayout et al. 2020.
Data set [15] deals with Enterobacter cloacae. The settings on record: ref Sayout et al. 2020.
Data set [16] has as its system Staphylococcus aureus. The settings on record: for MIC/Sensitivity: Staphylococcus aureus, ref Kwiatkowski et al. 2020, Sayout et al. 2020, Sousa Silveira et al. 2020, Macêdo et al. 2022, Noumi et al. 2023, Sharma et al. 2023; for tetracycline MIC: ref Sousa Silveira et al. (2020).
Data set [17] concerns Salmonella spp. The settings on record: ref Sayout et al. 2020.
Data set [18] has as its system Methicillin-resistant Staphylococcus aureus. The settings on record: MRSA isolates, ref Kwiatkowski et al. (2020).
The test system of data set [19] is Vibrio anguillarum, and Vibrio harveyi. The settings on record: ref Rossi et al. (2021).
Data set [20] relates to Campylobacter jejuni.

With `CC1CC[C@H](C(C)C)[C@@H](O)C1` (single isomer, unassigned; (+)) [(+)-Menthol], the MIC/Sensitivity in data set [1] is 100.0064 to 445.341 mg/mL; in [2] it was 53.1284 to 3562.728 mg/mL; in data set [3], 100.0064 to 445.341 mg/mL; in data set [4], 26.5642 to 445.341 mg/mL; in [5] it was 221.8892 to 7125.456 mg/mL; in [6], 53.1284 to 890.682 mg/mL.
As to `CC(C)=CCCC(C)CCO` (single isomer, unassigned; (-)) [(–)-Citronellol], the MIC/Sensitivity is 24.68 to 100.2625 mg/mL in [1]; 24.68 to 208.2375 mg/mL in data set [2]; 100.2625 to 1665.9 mg/mL in data set [3]; 49.36 to 208.2375 mg/mL in data set [4]; 49.36 to 1665.9 mg/mL in data set [5]; 49.36 to 416.475 mg/mL in data set [6].
As for `CC(C)=CCC[C@@H](C)CCO` [(+)-Citronellol], the MIC/Sensitivity is 24.68 to 100.2625 mg/mL in data set [1]; 24.68 to 208.2375 mg/mL in data set [2]; 100.2625 to 832.95 mg/mL in [3]; 49.36 to 208.2375 mg/mL in [4]; 49.36 to 1665.9 mg/mL in data set [5]; 49.36 to 416.475 mg/mL in data set [6].
In the case of `CC(C)[C@@H]1CC[C@@H](C)CC1=O` [(–)-Menthone], the MIC/Sensitivity in [1] is 1789.3 to 14314.4 mg/mL; in data set [2], 894.65 to 14314.4 mg/mL; in data set [3], 3578.6 to 7157.2 mg/mL; in [4], 1789.3 to 14314.4 mg/mL; in [5], 1789.3 to 28628.8 mg/mL; in data set [7] it was 6.98 mg/mL (≈ 45.3 mM). For the same compound, the MIC/Sensitivity was 27.91 mg/mL (≈ 181 mM) in [8] and 894.65 to 14314.4 mg/mL in data set [6].
Take `CC1=CCC2CC1C2(C)C` (stereo not drawn) [(–)-α-Pinene]: the MIC/Sensitivity in data set [1] was 6865.992 to 27463.968 mg/mL; in data set [2] it was 858.249 to 27463.968 mg/mL; in data set [3], 858.249 to 1716.498 mg/mL; in data set [4] it was 858.249 to 54927.936 mg/mL; in data set [5], 858.249 to 54927.936 mg/mL; in data set [6], 429.1245 to 1716.498 mg/mL.
Turning to `C=C1C2CCC(C2)C1(C)C` (stereo not shown) [Camphene], the MIC/Sensitivity in [9] is 0.02 mg/mL (≈ 0.147 mM); in data set [10], 0.015 mg/mL (≈ 0.11 mM); in data set [11], 0.03 mg/mL (≈ 0.22 mM).
Take `CC12CCC(CC1=O)C2(C)C` (stereo not shown) [Camphor]: the MIC/Sensitivity is 246.6126 to 989.495 mg/mL in data set [1]; 0.01525 mg/mL (≈ 0.1 mM) in data set [12]; 246.6126 to 1978.99 mg/mL in data set [2]; 246.6126 to 3957.98 mg/mL in [3]; 0.0061 mg/mL (≈ 0.0401 mM) in data set [13]; 0.01017 mg/mL (≈ 0.0668 mM) in data set [14]. The MIC/Sensitivity in [4] was 59.3697 to 989.495 mg/mL; in data set [5], 494.7475 to 3957.98 mg/mL; in data set [9], 0.01017 mg/mL (≈ 0.0668 mM); in data set [15] it was 0.0061 mg/mL (≈ 0.0401 mM); in data set [10], 0.00763 mg/mL (≈ 0.0501 mM); in [16], 0.00763 mg/mL (≈ 0.0501 mM). The MIC/Sensitivity in data set [11] is 0.00508 mg/mL (≈ 0.0334 mM); in [17] it was 0.0061 mg/mL (≈ 0.0401 mM); in data set [6], 59.3697 to 1978.99 mg/mL.
Regarding `C=C(C)C1CC=C(C)C(=O)C1` (stereo not shown) [Carvone], the MIC/Sensitivity was 0.00569 mg/mL (≈ 0.0379 mM) in data set [12]; 0.0091 mg/mL (≈ 0.0606 mM) in data set [13]; 0.01138 mg/mL (≈ 0.0758 mM) in data set [14]; 0.00758 mg/mL (≈ 0.0505 mM) in data set [9]; 0.0091 mg/mL (≈ 0.0606 mM) in data set [15]; 0.01138 mg/mL (≈ 0.0758 mM) in data set [10]. The MIC/Sensitivity in data set [16] is 0.01138 mg/mL (≈ 0.0758 mM); in [11], 0.01517 mg/mL (≈ 0.101 mM); in [17] it was 0.02275 mg/mL (≈ 0.151 mM).
In the case of `C=CC(C)(CCC=C(C)C)OC(C)=O` (stereo not shown) [Linalyl acetate], the results for the FICI in data set [18] (in combination with methicillin) and in [18] (in combination with penicillin G) were 0.4 and 0.6, respectively. Further, the MIC in [16] (S. aureus, ref Kwiatkowski et al. (2020)) is 28,200–112,600 μg/ml. Further, the MIC/Sensitivity in [16] is 46.9 mg/mL; in data set [8], 450.5 mg/mL.
In the case of `CC(C)[C@@H]1CC[C@@H](C)CC1=O` [Menthone], the MIC/Sensitivity in data set [16] is 27.9 mg/mL (≈ 181 mM).
With `C=CC(=C)CCC=C(C)C` [Myrcene], the figures for the MIC/Sensitivity in data set [15], in data set [10] and in [11] were 0.00775 mg/mL (≈ 0.0569 mM), 0.00194 mg/mL (≈ 0.0142 mM) and 0.0155 mg/mL (≈ 0.114 mM), respectively.
Turning to `CC(C)[C@]12CC(=O)[C@H](C)[C@H]1C2` [Thujone], the MIC/Sensitivity in data set [1] is 919.4692 to 7355.7536 mg/mL; in data set [2], 919.4692 to 7355.7536 mg/mL; in data set [3] it was 919.4692 to 7355.7536 mg/mL; in [4] it was 1838.9384 to 14711.5072 mg/mL; in data set [5], 459.7346 to 7355.7536 mg/mL; in data set [6] it was 3677.8768 to 14711.5072 mg/mL.
For the compound `CC1CCC(C(C)C)C(O)C1` (stereo not shown) [menthol], the “activity at the tested concentrations” value in data set [19] was “no activity”.
Turning to `CN(C)[C@@H]1C(O)=C(C(N)=O)C(=O)[C@@]2(O)C(O)=C3C(=O)c4c(O)cccc4[C@@](C)(O)[C@H]3C[C@@H]12` [tetracycline, reference compound], the “tetracycline MIC” value in data set [16] (S. aureus, before combination) was 0.114 mg/mL; in [16] (S. aureus, combined with thymol), 0.101 mg/mL.
As to `CC1=CCC2CC1C2(C)C` (stereo not drawn) [α-Pinene], the “activity at the tested concentrations” value in data set [19] is “no activity”. Further, the MIC/Sensitivity is 0.01188 mg/mL (≈ 0.0872 mM) in data set [9]; 0.01188 mg/mL (≈ 0.0872 mM) in [15]; 0.01188 mg/mL (≈ 0.0872 mM) in [10]; 0.01188 mg/mL (≈ 0.0872 mM) in data set [16]; 0.02375 mg/mL (≈ 0.174 mM) in data set [11].
Regarding `C=C1CCC2CC1C2(C)C` (stereo not drawn) [β-Pinene], the MIC/Sensitivity in data set [1] was 103.5348 to 3432.996 mg/mL; in [12], 0.02025 mg/mL (≈ 0.149 mM); in [2], 103.5348 to 6865.992 mg/mL; in [3], 103.5348 to 429.1245 mg/mL; in data set [13] it was 0.01013 mg/mL (≈ 0.0744 mM); in data set [14], 0.0135 mg/mL (≈ 0.0991 mM). Further, the MIC/Sensitivity in data set [4] was 103.5348 to 1716.498 mg/mL; in data set [5] it was 213.8811 to 13731.984 mg/mL; in data set [9], 0.0135 mg/mL (≈ 0.0991 mM); in [15] it was 0.00506 mg/mL (≈ 0.0371 mM); in data set [10], 0.00506 mg/mL (≈ 0.0371 mM); in data set [16] it was 0.01013 mg/mL (≈ 0.0744 mM). Further, the values for the MIC/Sensitivity in data set [11], in [17] and in data set [6] were 0.01013 mg/mL (≈ 0.0744 mM), 0.0081 mg/mL (≈ 0.0595 mM) and 213.8811 to 431.8491 mg/mL, respectively.
Turning to `CC1=CCC(C(C)C)=CC1` [γ-Terpinene], the MIC/Sensitivity in data set [12] was 0.00488 mg/mL (≈ 0.0358 mM); in data set [20] (Campylobacter jejuni, ref Šimunović et al. 2020), 1 mg/mL (≈ 7.34 mM); in data set [14], 0.00488 mg/mL (≈ 0.0358 mM); in data set [9], 0.00488 mg/mL (≈ 0.0358 mM); in data set [15], 0.0065 mg/mL (≈ 0.0477 mM); in [11], 0.00488 mg/mL (≈ 0.0358 mM). Also, in data set [17], the MIC/Sensitivity is 0.0065 mg/mL (≈ 0.0477 mM). Also, the MIC in data set [20] (ref Šimunović et al. (2020)) was 1,000 μg/ml.
As to (+)-α-Pinene, the MIC/Sensitivity in data set [1] is 429.1245 to 1716.498 mg/mL; in data set [2] it was 103.5348 to 1716.498 mg/mL; in data set [3], 51.7674 to 858.249 mg/mL; in [4] it was 51.7674 to 1716.498 mg/mL; in [5] it was 51.7674 to 1716.498 mg/mL; in data set [6] it was 51.7674 to 429.1245 mg/mL.
(–)-Limonene: the MIC/Sensitivity was 213.8811 to 1716.498 mg/mL in [1]; 12.2607 to 1716.498 mg/mL in data set [2]; 8.1738 to 429.1245 mg/mL in data set [3]; 50.4051 to 3432.996 mg/mL in data set [4]; 8.1738 to 13731.984 mg/mL in data set [5]; 50.4051 to 213.8811 mg/mL in [6].
